Assay results taken from US20230167088A1, “1-PYRAZINYLPYRAZOLYL-3-OXYALKYL ACIDS AND THEIR DERIVATIVES, AND THEIR USE FOR CONTROL OF UNDESIRED PLANT GROWTH” (BAYER AKTIENGESELLSCHAFT, priority 2020, published 2023).

Columns and labels:
MATIN [1] = assay: Herbicidal pre-emergence action 2b (doubly sown, 1280 g/ha); format: in vivo, Matricaria inodora; conditions: doubly sown pots, dosage 1280 g/ha, visual scoring after about 3 weeks
Method in brief: (§1)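 Weed seeds sown in sandy loam, two species per pot, covered with soil; compounds as WP or EC applied to soil surface as aqueous suspension/emulsion with 0.5% additive at 600 L/ha water. Greenhouse growth; visual % activity vs untreated controls after about 3 weeks (100% = dead, 0% = like control).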

VERPE [2] = assay: Herbicidal post-emergence action 1a (greenhouse pots, visual rating); format: in vivo, Veronica persica; conditions: visual rating about 3 weeks after treatment
Method in brief: (§2)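 Weeds and crops sown in sandy loam in greenhouse pots were sprayed post-emergence at the one-leaf stage (2–3 weeks after sowing) with WP or EC formulations plus 0.5% additive at 600 l/ha water, 320 and/or 80 g/ha. About 3 weeks later damage was rated visually against untreated controls (0% = no effect, 100% = dead).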

POLCO = assay: as above; format: in vivo, Polygonum convolvulus; conditions: visual rating about 3 weeks after treatment
Method in brief: as §2

DIGSA = assay: Herbicidal pre-emergence action 2a (greenhouse pots, visual scoring); format: in vivo, Digitaria sanguinalis; conditions: dosage 320 g/ha, visual scoring after about 3 weeks
Method in brief: (§3)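 Pre-emergence greenhouse pot test: WP or EC formulations sprayed onto covering soil over sown seeds at 600 l/ha water with 0.5% additive, at rates corresponding to 320 g/ha and/or 80 g/ha. Visual % activity versus untreated controls after about 3 weeks (100% = plants dead).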

STEME = assay: Herbicidal pre-emergence action 2b (doubly sown, 1280 g/ha); format: in vivo, Stellaria media; conditions: doubly sown pots, dosage 1280 g/ha, visual scoring after about 3 weeks
Method in brief: as §1

POAAN = assay: as above; format: in vivo, Poa annua; conditions: doubly sown pots, dosage 1280 g/ha, visual scoring after about 3 weeks
Method in brief: as §1

ECHCG [3] = assay: Herbicidal pre-emergence action 2a (greenhouse pots, visual scoring); format: in vivo, Echinochloa crus-galli; conditions: dosage 320 g/ha, visual scoring after about 3 weeks
Method in brief: as §3

ECHCG [4] = assay: Herbicidal pre-emergence action 2b (doubly sown, 1280 g/ha); format: in vivo, Echinochloa crus-galli; conditions: doubly sown pots, dosage 1280 g/ha, visual scoring after about 3 weeks
Method in brief: as §1

harmful plants = assay: Herbicidal pre-emergence action 2a, summary across species; format: in vivo; conditions: Tables B1 to B15 (320 g/ha and/or 80 g/ha)
From the text: a) Seeds of monocotyledonous and dicotyledonous weed plants and crop plants are placed in plastic or organic plant pots and covered with soil. The compounds of the invention, formulated in the form of wettable powders (WP) or as emulsion concentrates (EC), are then applied onto the surface of the covering soil as aqueous suspension or emulsion with addition of 0.5% additive at a water application rate of 600 1/ha (converted). After the treatment, the pots are placed in a greenhouse and kept under good growth conditions for the trial plants. After about 3 weeks, the effect of the preparations is scored visually in comparison with untreated controls as percentages. For example, 100% activity=the plants have died, 0% activity=like control plants.
Tables B1 to B15 below show the effects of selected compounds of the general formula (I) according to Tables 1 and 2 on various harmful plants and an application rate corresponding to 320 g/ha and/or 80 g/ha, which were obtained by the experimental procedure mentioned above.
For example, compound nos. I-07, I-08, I-11, I-12, I-13, I-16, I-17, I-20, I-36, I-37, I-39, I-45, I-46, I-48, I-52 and I-53 in the pre-emergence method have very good action (80% to 100% herbicidal activity) against harmful plants such as Alopecurus myosuroides, Amaranthus retroflexus, Digitaria sanguinalis, Lolium rigidum, Polygonum convolvulus, Setaria viridis, Veronica persica and Viola tricolor at an application rate of 0.32 kg of active substance per hectare.

ECHCG [5] = assay: Herbicidal post-emergence action 1a (greenhouse pots, visual rating); format: in vivo, Echinochloa crus-galli; conditions: Dosage 320 g/ha; rated visually about 3 weeks after treatment; 100% = plants have died, 0% = like control plants
Method in brief: as §2

VERPE [6] = assay: Herbicidal pre-emergence action 2a (greenhouse pots, visual scoring); format: in vivo, Veronica persica; conditions: dosage 320 g/ha, visual scoring after about 3 weeks vs untreated controls
Method in brief: as §3

MATIN [7] = assay: as above; format: in vivo, Matricaria inodora; conditions: dosage 320 g/ha, visual scoring after about 3 weeks vs untreated controls
Method in brief: as §3

ABUTH = assay: Herbicidal post-emergence action 1a (greenhouse pots, visual rating); format: in vivo, Abutilon theophrasti; conditions: visual rating about 3 weeks after treatment
Method in brief: as §2

For `COC(=O)[C@@H](C)Oc1nn(-c2cnccn2)c(-c2ccnc(F)c2)c1Br` [Example I-34], the “Pre-emergence action at 1280 g/ha against MATIN in %” value (MATIN [1]) was 100%, the “Post-emergence action against VERPE in %” value (VERPE [2]; dosage 320 g/ha) was 80% and the “Post-emergence action against POLCO in %” value (POLCO; dosage 320 g/ha) was 100%. The “Pre-emergence action against DIGSA in %” value (DIGSA) was 100%, the “Pre-emergence action at 1280 g/ha against STEME in %” value (STEME) was 100% and the “Pre-emergence action at 1280 g/ha against POAAN in %” value (POAAN) was 100%. For the same compound, the “Pre-emergence action against ECHCG in %” value (ECHCG [3]) was 80%, the “Pre-emergence action at 1280 g/ha against ECHCG in %” value (ECHCG [4]) was 90% and the “herbicidal efficacy against harmful plants in the case of pre-emergence treatment (in words)” value (“herbicidal efficacy” for short) (harmful plants) was “good herbicidal efficacy”.

In the case of `COC(=O)C(C)Oc1nn(-c2cnccn2)c(-c2ccc(F)c(F)c2)c1Br` (racemic) [Example I-16], the “Pre-emergence action at 1280 g/ha against MATIN in %” value (MATIN [1]) is reported as 100%, the “Post-emergence action against VERPE in %” value (VERPE [2]; dosage 320 g/ha) is reported as 80% and the “Post-emergence action against POLCO in %” value (POLCO; dosage 320 g/ha) is reported as 90%. For the same compound, the “Pre-emergence action against DIGSA in %” value (DIGSA) was 100%, the “Pre-emergence action at 1280 g/ha against STEME in %” value (STEME) was 100% and the “Pre-emergence action at 1280 g/ha against POAAN in %” value (POAAN) was 100%. The “Pre-emergence action at 1280 g/ha against ECHCG in %” value (ECHCG [4]) was 100%, the “Post-emergence action against ECHCG in %” value (ECHCG [5]) was 90% and the “Pre-emergence action against VERPE in %” value (VERPE [6]) was 100%. The “herbicidal efficacy” value (harmful plants) was “good herbicidal efficacy”, the “Pre-emergence action against MATIN in %” value (MATIN [7]) was 90% and the “Post-emergence action against ABUTH in %” value (ABUTH; dosage 320 g/ha) was 80%.

For `COC(=O)C(C)Oc1nn(-c2cnccn2)c(-c2ccc(F)nc2)c1Br` (racemic) [Example I-12], the “Pre-emergence action at 1280 g/ha against MATIN in %” value (MATIN [1]) was 90%, the “Post-emergence action against VERPE in %” value (VERPE [2]; dosage 80 g/ha) was 80% and the “Post-emergence action against VERPE in %” value (VERPE [2]; dosage 320 g/ha) was 90%. For the same compound, the “Post-emergence action against POLCO in %” value (POLCO; dosage 320 g/ha) was 90%, the “Pre-emergence action against DIGSA in %” value (DIGSA) was 100% and the “Pre-emergence action at 1280 g/ha against STEME in %” value (STEME) was 100%. For the same compound, the “Pre-emergence action at 1280 g/ha against POAAN in %” value (POAAN) was 100%, the “Pre-emergence action at 1280 g/ha against ECHCG in %” value (ECHCG [4]) was 100% and the “Post-emergence action against ECHCG in %” value (ECHCG [5]) was 80%. The “Pre-emergence action against VERPE in %” value (VERPE [6]) was 80%, the “herbicidal efficacy” value (harmful plants) was “good herbicidal efficacy” and the “Post-emergence action against ABUTH in %” value (ABUTH; dosage 320 g/ha) was 80%.

For `COC(=O)[C@@H](C)Oc1nn(-c2cnccn2)c(-c2cncc(F)c2)c1C#N` [Example I-40], the “Pre-emergence action at 1280 g/ha against MATIN in %” value (MATIN [1]) was 100%, the “Post-emergence action against VERPE in %” value (VERPE [2]; dosage 320 g/ha) was 80% and the “Post-emergence action against POLCO in %” value (POLCO; dosage 80 g/ha) was 80%. The “Post-emergence action against POLCO in %” value (POLCO; dosage 320 g/ha) was 80%, the “Pre-emergence action against DIGSA in %” value (DIGSA) was 100% and the “Pre-emergence action at 1280 g/ha against STEME in %” value (STEME) was 100%. The “Pre-emergence action at 1280 g/ha against POAAN in %” value (POAAN) was 100%, the “Pre-emergence action at 1280 g/ha against ECHCG in %” value (ECHCG [4]) was 100% and the “Post-emergence action against ABUTH in %” value (ABUTH; dosage 80 g/ha) was 80%. For the same compound, the “Post-emergence action against ABUTH in %” value (ABUTH; dosage 320 g/ha) was 80%.

For `COC(=O)C(C)Oc1nn(-c2cnccn2)c(-c2ccnc(F)c2)c1Br` (racemic) [Example I-10], the “Pre-emergence action at 1280 g/ha against MATIN in %” value (MATIN [1]) was 90%, the “Post-emergence action against VERPE in %” value (VERPE [2]; dosage 80 g/ha) was 80% and the “Post-emergence action against VERPE in %” value (VERPE [2]; dosage 320 g/ha) was 90%. For the same compound, the “Pre-emergence action against DIGSA in %” value (DIGSA) was 100%, the “Pre-emergence action at 1280 g/ha against STEME in %” value (STEME) was 100% and the “Pre-emergence action at 1280 g/ha against POAAN in %” value (POAAN) was 100%.
